Patent publication US20130203861A1, “METHODS AND COMPOSITIONS FOR TREATING OVARIAN CANCER” (GOLDEN BIOTECHNOLOGY CORPORATION, priority 2009, published 2013)
Values after ≈ are worked out from the molar mass of the structure shown.

System: ovarian cancer cell line ES-2
Experiment: MTT assay for anti-ovarian cancer (cell survival)
Assay type: cell-based
Conditions: Homo sapiens, ES-2 cells, 48 hours treatment, absorbance at 570 nm, read-out: IC50 (half inhibition concentration), inhibition of ovarian cancer cells
Method: Exemplary Compound 1 was added into the culture media of ovarian cancer cell line ES-2 (a human ovarian cancer cell line) to determine the survival rates. Survival of cells was analyzed using MTT assay. Other suitable human ovarian cancer cell lines may be used by a skilled person in the art.
MTT assay is commonly used to analyze cell proliferation, survival rate of viable cells and cytotoxicity. MTT (3[4,5-dimethylthiazol-2-yl]-2,5-diphenyltetrazolium bromide) is a yellow dye which can be converted to water-insoluble purple formazan on the reductive cleavage of its tetrazolium ring by the succinate tetrazolium reductase in mitochondria of cells. The amount of formazan produced is used to detect the number of viable cells and calculate the survival rates.
The ES-2 cells were cultivated in McCoy' 5 A medium supplemented with 10% fetal bovine serum, 10 U/ml of Penicillin and 100 μg/ml of Streptomycin at 37° C., 5% CO2 for 24 hours. Proliferated cells were washed once with PBS, treated with 1× trypsin-EDTA, and centrifuged at 1200 rpm for 5 min. The supernatant was removed and the cell pellet was resuspended in 10 ml of fresh medium by gently shaking. Cells were seeded onto 96-well plates. […] The absorbances were measured at 570 nm with an ELISA Reader to determine the survival rates.

Q: For COC1=C(OC)C(O)C(C/C=C(\C)CC/C=C(\C)CCC=C(C)C)C(C)C1=O (stereo not shown) [Compound 1, 4-hydroxy-2,3-dimethoxy-6-methyl-5-(3,7,11-trimethyldodeca-2,6,10-trienyl)cyclohex-2-enone], which IC50 is on record?
A: 0.8 mg/L (≈ 2.05 µM)
